Test results from article PMC4541002, “Quantification of Niacin and Its Metabolite Nicotinuric Acid in Human Plasma by LC-MS/MS: Application to a Clinical Trial of a Fixed Dose Combination Tablet of Niacin Extended-Release/Simvastatin (500 mg/10 mg) in Healthy Chinese Volunteers” (International Journal of Analytical Chemistry, 2015).
Like-named read-outs stand apart in the source and are kept apart here.

How the values were obtained:
[1] = for Found C / Found R.E.: n = 3; for stability in human plasma: variety of storage and process conditions (Tables 2 and 3)
Method: The following stability tests were evaluated: (1) stability of the stock solutions of the analytes; (2) freeze and thaw stability of the analytes in the plasma from −20°C to room temperature for three cycles; (3) short-term stability of the analytes in plasma at room temperature before extraction for 3 h and the ready-to-inject samples (after extraction, in the mobile phase) to the autosampler rack for 4 h; and (4) long-term stability of the analytes in matrix stored at −20°C for two months. All stability tests samples at three concentration levels (10, 60, and 600 ng/mL) were analyzed in triplicate and the deviations were determined in relation to freshly prepared samples.

[2] = Stability of stock solutions of NA and NUA; type: physicochemical
Method: Two separate stock solutions of the analytes were prepared at 1 mg/mL in methanol-water (50 : 50, v/v) and stored at −20°C. A series of standard working solutions for NA and NUA were prepared by diluting stock solution with methanol-water (50 : 50, v/v). The 5-FU solution was brought to a final concentration of 1000 ng/mL in acetonitrile from 1 mg/mL in acetonitrile. All working solutions were stored at 4°C and brought to room temperature before use. Calibration standards and quality control samples were prepared by spiking 50 μL of the working solutions and 50 μL of IS into 100 μL of drug-free human plasma. Matrix-matched NA and NUA calibration standards were prepared in plasma at concentrations of 5, 10, 20, 60, 200, 600, and 800 ng/mL, respectively. Similarly, NA and NUA quality control (QC) samples were prepared separately in plasma to give concentrations of 10, 60, and 600 ng/mL.

[3] = Pharmacokinetics of NA and NUA in plasma after single oral doses of Niacin extended-release/Simvastatin tablets in healthy Chinese volunteers; type: in vivo; conditions: for CLz/F: human plasma; for AUC(0-t) / AUC(0-inf) / Tmax / half-life / Cmax / k el / MRT last / Vd/F: both sexes, human, po; for k el: n = 12, read-out: K e (converted); for MRT last: n = 12, read-out: MRT0–t; for Vd/F: n = 12, read-out: V z/F
Method: Extraction of NA and NUA was carried out by protein precipitation. First, 50 μL of the IS working solution (1000 ng/mL 5-FU) and 50 μL of water were added to a 100 μL aliquot of human plasma. The sample mixture was then deproteinized with 250 μL of acetonitrile, and the precipitate was removed by centrifugation at 15000 rpm for 10 min. The supernatant was transferred to another tube and evaporated under a gentle stream of nitrogen at 40°C until it is dry. The residue was reconstituted in 150 μL mobile phase and vortex-mixed for 30 sec. An aliquot of 40 μL of the solution was injected into the LC-MS/MS system for analysis.
Before conducting the study all subjects provided written informed consent to participate. The study was designed as randomized, open-label, crossover, and single dose periods with a 7-day washout between each treatment. A total of 12 healthy Chinese volunteers (6 males and 6 females) aged 20 to 35 years with a body mass index between 19 and 24 kg/m^2 were recruited. Subjects were randomized into three groups (2 males and 2 females for each treatment). They were orally dosed with Niacin extended-release/Simvastatin 1, 2, and 3 tablets once daily, separately. The venous blood samples were collected at time intervals (0, 0.33, 0.66, 1.0, 1.5, 2.0, 2.5, 3.0, 3.5, 4.0, 5.0, 6.0, 8.0, 12, and 24 h) in separate vacutainers during the treatment. All blood samples were centrifuged at 3000 ×g for 10 min and the plasma was separated and kept frozen at −20°C until analysis.
The pharmacokinetic parameters were calculated with data analysis system (DAS) program (version 2.0, Mathematical Pharmacology Professional Committee, Shanghai, China). The maximum plasma concentration (C max) and the corresponding time (T max) were obtained from observed data. The terminal elimination rate constant (K e) was estimated with least-squares regression of values in the terminal log-linear region of plasma concentration-time curves, and the terminal elimination half-life (t 1/2) was calculated to be 0.693/K e. The area under the curve from time zero to the last sampling time (AUC0−t) was determined using the linear trapezoidal rule.

[4] = extracted plasma sample in mobile phase, autosampler for 4 h (24°C), added 10.0 ng/mL
[5] = extracted plasma sample in mobile phase, autosampler for 4 h (24°C), added 60.0 ng/mL
[6] = extracted plasma sample in mobile phase, autosampler for 4 h (24°C), added 600.0 ng/mL
[7] = human plasma, long-term (2 months at −20°C), added 10.0 ng/mL
[8] = human plasma, long-term (2 months at −20°C), added 60.0 ng/mL
[9] = human plasma, long-term (2 months at −20°C), added 600.0 ng/mL
[10] = human plasma, short-term (3 h at 24°C), added 10.0 ng/mL
[11] = human plasma, short-term (3 h at 24°C), added 60.0 ng/mL
[12] = human plasma, short-term (3 h at 24°C), added 600.0 ng/mL
[13] = human plasma, three freeze/thaw cycles, added 10.0 ng/mL
[14] = human plasma, three freeze/thaw cycles, added 60.0 ng/mL
[15] = human plasma, three freeze/thaw cycles, added 600.0 ng/mL
[16] = seven days at −20°C versus before
[17] = six h at room temperature versus before
[18] = 1 tablet (500 mg/10 mg), mean ± S.D., n = 12
[19] = 2 tablets (1000 mg/20 mg), mean ± S.D., n = 12
[20] = 3 tablets (1500 mg/30 mg), mean ± S.D., n = 12
[21] = plasma, 1 tablet (500 mg/10 mg), mean ± S.D., n = 12
[22] = plasma, 1 tablet (500 mg/10 mg), mean ± S.D.
[23] = plasma, 2 tablets (1000 mg/20 mg), mean ± S.D., n = 12
[24] = plasma, 2 tablets (1000 mg/20 mg), mean ± S.D.
[25] = plasma, 3 tablets (1500 mg/30 mg), mean ± S.D., n = 12
[26] = plasma, 3 tablets (1500 mg/30 mg), mean ± S.D.
[27] = in vivo, 1 tablet (500 mg/10 mg), mean ± S.D., n = 12
[28] = in vivo, 1 tablet (500 mg/10 mg), mean ± S.D.
[29] = in vivo, 2 tablets (1000 mg/20 mg), mean ± S.D., n = 12
[30] = in vivo, 2 tablets (1000 mg/20 mg), mean ± S.D.
[31] = in vivo, 3 tablets (1500 mg/30 mg), mean ± S.D., n = 12
[32] = in vivo, 3 tablets (1500 mg/30 mg), mean ± S.D.

## O=C(O)c1cccnc1 [NA, 3-pyridine-carboxylic acid]
[1]; [4]
  Found C: 9.6 ng/mL
  Found R.E.: −3.7%
[1]; [5]
  Found C: 62.7 ng/mL
  Found R.E.: 4.5%
[1]; [6]
  Found C: 578.3 ng/mL
  Found R.E.: −3.6%
[1]; [7]
  Found C: 9.6 ng/mL
  Found R.E.: −4.1%
[1]; [8]
  Found C: 53.7 ng/mL
  Found R.E.: −10.6%
[1]; [9]
  Found C: 595.3 ng/mL
  Found R.E.: −0.8%
[1]; [10]
  Found C: 9.1 ng/mL
  Found R.E.: −8.9%
[1]; [11]
  Found C: 58.8 ng/mL
  Found R.E.: −2.1%
[1]; [12]
  Found C: 636.3 ng/mL
  Found R.E.: 6.0%
[1]; [13]
  Found C: 9.5 ng/mL
  Found R.E.: −4.6%
[1]; [14]
  Found C: 58.0 ng/mL
  Found R.E.: −3.28%
[1]; [15]
  Found C: 546.3 ng/mL
  Found R.E.: −9.0%
[1]
  stability in human plasma: did not reveal any significant degradation
[2]; [16]
  R.E.% of response, stock solution stability: −5.8%
[2]; [17]
  R.E.% of response, stock solution stability: −1.1%
[3]; [18]
  CLz/F: 1271 ± 850.0 L/h
[3]; [19]
  CLz/F: 744.0 ± 356.0 L/h
[3]; [20]
  CLz/F: 526.0 ± 421.0 L/h
[3]; plasma, 1 tablet
  AUC(0-t): 349 ± 192 ng·h/mL
[3]; [21]
  AUC(0-inf): 518 ± 226 ng·h/mL
  AUC(0-t): 385 ± 192 ng·h/mL
  Tmax: 2.94 ± 2.63 h
  half-life: 8.8 ± 8.49 h
[3]; plasma, 1 tablet (500 mg/10 mg), mean ± S.D., n = 12, read-out: C max
  Cmax: 160 ± 125 ng/mL
[3]; [22]
  k el: 5.28e-05 s⁻¹
  MRT last: 5.37 ± 1.96 h
  Vd/F: 13700 ± 11600 L
[3]; plasma, 1 tablet, read-out: mean maximum plasma concentration (C max)
  Cmax: 160 ± 125 ng/mL
[3]; plasma, 2 tablets
  AUC(0-t): 1540 ± 957 ng·h/mL
[3]; [23]
  AUC(0-inf): 1720 ± 923 ng·h/mL
  AUC(0-t): 1540 ± 957 ng·h/mL
  Tmax: 1.82 ± 1.69 h
  half-life: 7.33 ± 8.68 h
[3]; plasma, 2 tablets (1000 mg/20 mg), mean ± S.D., n = 12, read-out: C max
  Cmax: 904 ± 487 ng/mL
[3]; [24]
  k el: 0.000119 s⁻¹
  MRT last: 4.4 ± 2.21 h
  Vd/F: 7650 ± 9320 L
[3]; plasma, 2 tablets, read-out: C max
  Cmax: 904 ± 487 ng/mL
[3]; plasma, 3 tablets
  AUC(0-t): 6020 ± 6580 ng·h/mL
[3]; [25]
  AUC(0-inf): 6100 ± 6550 ng·h/mL
  AUC(0-t): 6020 ± 6580 ng·h/mL
  Tmax: 2.42 ± 1.64 h
  half-life: 5.4 ± 4.57 h
[3]; plasma, 3 tablets (1500 mg/30 mg), mean ± S.D., n = 12, read-out: C max
  Cmax: 2480 ± 1430 ng/mL
[3]; [26]
  k el: 7.5e-05 s⁻¹
  MRT last: 3.65 ± 1.33 h
  Vd/F: 5200 ± 6650 L
[3]; plasma, 3 tablets, read-out: C max
  Cmax: 2480 ± 1430 ng/mL

## O=C(O)CNC(=O)c1cccnc1 [NUA, nicotinuric acid]
[1]; [4]
  Found C: 10.7 ng/mL
  Found R.E.: 7.3%
[1]; [5]
  Found C: 67.0 ng/mL
  Found R.E.: 11.7%
[1]; [6]
  Found C: 598.3 ng/mL
  Found R.E.: −0.3%
[1]; [7]
  Found C: 10.6 ng/mL
  Found R.E.: 6.4%
[1]; [8]
  Found C: 59.1 ng/mL
  Found R.E.: −1.5%
[1]; [9]
  Found C: 579.3 ng/mL
  Found R.E.: −3.4%
[1]; [10]
  Found C: 11.0 ng/mL
  Found R.E.: 9.7%
[1]; [11]
  Found C: 63.6 ng/mL
  Found R.E.: 5.9%
[1]; [12]
  Found C: 628.7 ng/mL
  Found R.E.: 4.8%
[1]; [13]
  Found C: 10.8 ng/mL
  Found R.E.: 8.3%
[1]; [14]
  Found C: 63.3 ng/mL
  Found R.E.: 5.6%
[1]; [15]
  Found C: 618.3 ng/mL
  Found R.E.: 3.1%
[1]
  stability in human plasma: did not reveal any significant degradation
[2]; [16]
  R.E.% of response, stock solution stability: −1.6%
[2]; [17]
  R.E.% of response, stock solution stability: 0.8%
[3]; [18]
  CLz/F: 287.8 ± 128.2 L/h
[3]; [19]
  CLz/F: 224.8 ± 91.90 L/h
[3]; [20]
  CLz/F: 189.3 ± 94.20 L/h
[3]; in vivo, 1 tablet
  AUC(0-t): 2150 ± 1360 ng·h/mL
[3]; [27]
  AUC(0-inf): 2180 ± 1370 ng·h/mL
  AUC(0-t): 2150 ± 1360 ng·h/mL
  Tmax: 2.06 ± 1.6 h
  half-life: 1.7 ± 0.801 h
[3]; in vivo, 1 tablet (500 mg/10 mg), mean ± S.D., n = 12, read-out: C max
  Cmax: 836 ± 399 ng/mL
[3]; [28]
  k el: 0.000147 s⁻¹
  MRT last: 2.91 ± 0.74 h
  Vd/F: 649 ± 338 L
[3]; in vivo, 1 tablet, read-out: mean maximum plasma concentration (C max)
  Cmax: 836 ± 399 ng/mL
[3]; in vivo, 2 tablets
  AUC(0-t): 5400 ± 3220 ng·h/mL
[3]; [29]
  AUC(0-inf): 5480 ± 3250 ng·h/mL
  AUC(0-t): 5400 ± 3220 ng·h/mL
  Tmax: 3.03 ± 2.19 h
  half-life: 2.55 ± 1.26 h
[3]; in vivo, 2 tablets (1000 mg/20 mg), mean ± S.D., n = 12, read-out: C max
  Cmax: 1630 ± 636 ng/mL
[3]; [30]
  k el: 9.17e-05 s⁻¹
  MRT last: 3.6 ± 1.32 h
  Vd/F: 821 ± 523 L
[3]; in vivo, 2 tablets, read-out: C max
  Cmax: 1630 ± 636 ng/mL
[3]; in vivo, 3 tablets
  AUC(0-t): 10200 ± 7080 ng·h/mL
[3]; [31]
  AUC(0-inf): 10200 ± 7090 ng·h/mL
  AUC(0-t): 10200 ± 7080 ng·h/mL
  Tmax: 2.33 ± 1.05 h
  half-life: 2.72 ± 1.83 h
[3]; in vivo, 3 tablets (1500 mg/30 mg), mean ± S.D., n = 12, read-out: C max
  Cmax: 2790 ± 1040 ng/mL
[3]; [32]
  k el: 9.17e-05 s⁻¹
  MRT last: 3.79 ± 1.11 h
  Vd/F: 696 ± 458 L
[3]; in vivo, 3 tablets, read-out: C max
  Cmax: 2790 ± 1040 ng/mL
